Assay results from US8445428B2, “Plant derived antibiotic peptide rich in glycine” (Uniao Brasiliense de Educacao e Cultura—UBEC, priority 2006, dated 2013).

What was measured:
Assay type in all cases: cell-based
Klebsiella sp. = experiment: Bioassay against bacteria: growth in LB medium, absorbance at 600 nm; details: micromolar concentrations, 37° C. for 4 hours
Experimental: (§1) The bioassays against bacteria were performed using 1.0 ml of Luria Bertani medium (NaCl 10 g.l^−1, yeast extract 5 g.l^−1 and bactopeptone […]). Two species, namely Klebsiella sp. and Proteus sp., were used, with the protein under test was restricted to micromolar concentrations. The bacteria grew in the LB medium during 16-18 hours at 37° C. before being evaluated with the proteins. Distilled water was used as negative control and chloramphenicol 40 μg.ml^−1 as positive control. Protein from guava seeds was incubated against the bacteria at 37° C. for 4 hours. Bacterial growth was assessed by an absorbance reading at 600 nm at each hour of the experiment. Each experiment was performed in triplicate.

Proteus sp. = experiment: as above; details: micromolar concentrations, 37° C. for 4 hours
Experimental: as §1

Staphylococcus aureus = experiment: Preliminary bioassays against gram-positive bacteria; details: such as Staphylococcus aureus

RESPSSRMECYEQAERYGYGGYGGGRYGGGYGSGRGQPVGQGVERSHDDNRNQPR (SEQ ID NO: 1) (RESPSSRMECYEQAERYGYGGYGGGRYGGGYGSGRGQPVGQGVERSHDDNRNQPR; listed as Psidium guajava) [Pg-AMP1, glycine rich anti-microbial peptide of 55 amino acids, about 5 kDa, purified from guava (Psidium guajava) seeds]
inhibitory activity (Klebsiella sp.): 90%
inhibitory activity (Proteus sp.): 30%
inhibitory activity (Staphylococcus aureus): did not reveal any inhibitory activity
